Laboratory results taken from US20250326933A1, “SOLID COMPOSITION OF INDOCYANINE GREEN AND SODIUM FLUORESCEIN” (ICROM Srl, priority 2021, published 2025).

Tests used:
[1] = Solubility in water evaluated by filtration of the solution on a syringe filter; format: physicochemical
[2] = Stability of the compounds of formula (IA) and (IB) and of their solid composition by HPLC; format: physicochemical; conditions: for Stability by HPLC as such and after freeze-drying: (IA) with or without iodide
Experimental: The formulations from 13 to 18 and the compounds used for the preparation thereof were analysed with the following analytical method. The analysis confirms that the purity of IA >99.5% injected as such and the stability of the formulation after freeze-drying, evaluated based on the fact that there is no other peak in the chromatogram except for Ia and Ib.
Sample solution: 1.5 mg/ml in methanol. Inject immediately after preparing the solution. The mixtures of formula (IA) and (IB) described in Table 2 were prepared and then appropriately diluted and injected in HPLC to evaluate the profile at T0.
The same mixtures were re-prepared exactly as described in the experimental part, dry frozen and controlled in HPLC after freeze-drying, 7 days later. During these 7 days the samples were stored inside their amber glass vials in a protective atmosphere at room temperature. The freeze-dried products were dissolved in water at the same dilution as the not freeze-dried samples.
The stability of the freeze-dried powders stored in the vials was evaluated using HPLC even after 6 months. The freeze-dried products are stable, even without the presence of sodium iodide, formulation 9.
The reconstituted solution was stable if stored at 4-10° C. for at least 24 hours (formulations 1, 3, 5 and 7).

[3] = aqueous solution; cited from earlier work
[4] = after intravenous administration; cited from earlier work
[5] = freeze-dried, 10 mg/ml in water
[6] = not freeze-dried, 5 mg/ml in water
[7] = not freeze-dried, 10 mg/ml in water

Compound	Filtration on 0.45 μm syringe filter: Pressure ([1]; freeze-dried, 5 mg/ml in water)	Filtration on 0.45 μm syringe filter: ml filtered ([1]; freeze-dried, 5 mg/ml in water) [mL]	Filtration on 0.45 μm syringe filter: Pressure [1, 5]	Filtration on 0.45 μm syringe filter: ml filtered [1, 5] [mL]	Filtration on 0.45 μm syringe filter: Pressure [1, 6]	Filtration on 0.45 μm syringe filter: ml filtered [1, 6] [mL]	Filtration on 0.45 μm syringe filter: Pressure [1, 7]	Filtration on 0.45 μm syringe filter: ml filtered [1, 7] [mL]	Stability by HPLC as such and after freeze-drying [2]	Degradation by freeze-drying (HPLC) ([2]; as such or in mixture with (IB), with or without sodium iodide)	Decomposition when dissolved in water [3]	Time to complete removal by the kidneys [4] [h]
CC1(C)C(/C=C/C=C/C=C/C=C2\N(CCCCS(=O)(=O)[O-])c3ccc4ccccc4c3C2(C)C)=[N+](CCCCS(=O)(=O)[O-])c2ccc3ccccc3c21.[Na+] [069/079]	Low	10	Low	10	Block	0	Block	0	–	–	–	–
CC1(C)C(/C=C/C=C/C=C/C=C2\N(CCCCS(=O)(=O)[O-])c3ccc4ccccc4c3C2(C)C)=[N+](CCCCS(=O)(=O)[O-])c2ccc3ccccc3c21.[Na+] [compound of formula (IA), 1H-benz[e]indole, 2-[7-[1,3-dihydro-1,1-dimethyl-3-(4-sulfobutyl)-2H-benz[e]indol-2-ylidene]-1,3,5-heptatrienyl]-1,1-dimethyl-3-(4-sulfobutyl) hydroxide, inner salt, sodium salt]	–	–	–	–	–	–	–	–	stable	does not degrade	non-detectable decomposition for a few hours	–
O=C([O-])c1ccccc1-c1c2ccc(=O)cc-2oc2cc([O-])ccc12.[Na+].[Na+] [compound of formula (IB), sodium fluorescein]	–	–	–	–	–	–	–	–	stable	–	–	24 to 36
